Experiments:
mP–gp = molecular target: T1, mP–gp (Mus musculus, UniProt P21447); assay: Photolabeling of P–gp with [125I]-IAAP / IAAP displacement; assay type: binding; conditions: for Ki: Equation (S2), total concentrations, native membranes 1.0 mg/mL, read-out: dissociation constant, competitive inhibition of IAAP binding
T1 construct: made in house; host or cells: High-Five insect cells (Invitrogen), recombinant baculovirus; total membrane vesicles
Protocol: The native membranes of High-Five insect cells expressing mP–gp (1.0 mg/mL) were incubated at room temperature with the indicated concentrations of the inhibitor for 5 min. IAAP (5 to 7 nM) was later added, and the reaction mixture was further incubated for 5 min under subdued light. The samples were photocross-linked with 366 nm UV light for 10 min at room temperature, followed by electrophoresis and quantification, as described previously. The raw data are shown in the Supplementary Information (Figure S4). The results were first analyzed with the usual equation, considering the total concentration of IAAP and NBD amphiphile, as well as competitive inhibition of IAAP binding, see Supplementary Information (Equation (S2)). The dissociation constant considered for IAAP was taken from the literature, 412 nM [15]. The results were also analyzed with a formalism derived in this manuscript considering the distribution of the NBD amphiphile in the distinct environments (aqueous phase, lipid bilayer, and P–gp), the distribution of IAAP between the aqueous media and P–gp, and several equal and independent binding sites in P–gp’s binding pocket, Equation (10).
In this assay, in addition to the binding of the NBD amphiphiles to P–gp binding pocket, it is also necessary to consider the binding of IAAP. The concentration of IAAP used in the assay (5 nM) is several orders of magnitude smaller than that of the amphiphiles in study, and it is also smaller than the total concentration of P–gp (59 nM). Therefore, Equation (8) may be used to calculate the concentration of free ligand and protein. The fraction of IAAP bound to P–gp may then be calculated from Equation (10), where P^* is the concentration of P–gp available for IAAP binding. (10) IP/IT=−b−b^2−4ac/2aa=1; b=−1+KdIAAP/IT+P^*/IT; c=P^*/IT
The number of binding sites in P–gp binding pocket was varied from 1 to 5, and three situations were considered in the analysis: (i) full inhibition of IAAP binding when at least one NBD amphiphile is in the P–gp binding pocket ( i≥1 ), corresponding to P^*=P; (ii) inhibition of IAAP binding only when P–gp is fully saturated ( i=n ), corresponding to P^*=P+∑i=1n−1PLi; and (iii) an intermediate situation with IAAP displacement for i≥n−1 , corresponding to P^*=P+∑i=1n−2PLi .
The displacement of IAAP from P–gp binding pocket was calculated from Equation (11), where IP0 is the concentration of IAAP bound to P–gp in the absence of the NBD amphiphiles. (11) IAAP displacement %=100IP0−IP/IP0

[1] = cited from earlier work; for critical aggregation concentration (CAC): 25 °C, aqueous; for increase of CAC in the presence of co-solvent: e.g. 1 M trehalose
mouse P–gp (mP–gp) = molecular target: T2, mouse P–gp (mP–gp) (Mus musculus, UniProt P21447); assay: P–gp ATPase activity (vanadate-sensitive, end point Pi release) in native membranes; assay type: biochemical; conditions: Equation (S1), total modulator concentration; only activation for NBD–C4; constraint K1≤K2 for NBD–C8 and NBD–LysoMPE; [75% confidence interval]; read-out: K1, dissociation constant for P–gp activation
T2 construct: made in house; host or cells: High-Five insect cells (Invitrogen), recombinant baculovirus; total membrane vesicles
T2 sequence (P21447 whole entry): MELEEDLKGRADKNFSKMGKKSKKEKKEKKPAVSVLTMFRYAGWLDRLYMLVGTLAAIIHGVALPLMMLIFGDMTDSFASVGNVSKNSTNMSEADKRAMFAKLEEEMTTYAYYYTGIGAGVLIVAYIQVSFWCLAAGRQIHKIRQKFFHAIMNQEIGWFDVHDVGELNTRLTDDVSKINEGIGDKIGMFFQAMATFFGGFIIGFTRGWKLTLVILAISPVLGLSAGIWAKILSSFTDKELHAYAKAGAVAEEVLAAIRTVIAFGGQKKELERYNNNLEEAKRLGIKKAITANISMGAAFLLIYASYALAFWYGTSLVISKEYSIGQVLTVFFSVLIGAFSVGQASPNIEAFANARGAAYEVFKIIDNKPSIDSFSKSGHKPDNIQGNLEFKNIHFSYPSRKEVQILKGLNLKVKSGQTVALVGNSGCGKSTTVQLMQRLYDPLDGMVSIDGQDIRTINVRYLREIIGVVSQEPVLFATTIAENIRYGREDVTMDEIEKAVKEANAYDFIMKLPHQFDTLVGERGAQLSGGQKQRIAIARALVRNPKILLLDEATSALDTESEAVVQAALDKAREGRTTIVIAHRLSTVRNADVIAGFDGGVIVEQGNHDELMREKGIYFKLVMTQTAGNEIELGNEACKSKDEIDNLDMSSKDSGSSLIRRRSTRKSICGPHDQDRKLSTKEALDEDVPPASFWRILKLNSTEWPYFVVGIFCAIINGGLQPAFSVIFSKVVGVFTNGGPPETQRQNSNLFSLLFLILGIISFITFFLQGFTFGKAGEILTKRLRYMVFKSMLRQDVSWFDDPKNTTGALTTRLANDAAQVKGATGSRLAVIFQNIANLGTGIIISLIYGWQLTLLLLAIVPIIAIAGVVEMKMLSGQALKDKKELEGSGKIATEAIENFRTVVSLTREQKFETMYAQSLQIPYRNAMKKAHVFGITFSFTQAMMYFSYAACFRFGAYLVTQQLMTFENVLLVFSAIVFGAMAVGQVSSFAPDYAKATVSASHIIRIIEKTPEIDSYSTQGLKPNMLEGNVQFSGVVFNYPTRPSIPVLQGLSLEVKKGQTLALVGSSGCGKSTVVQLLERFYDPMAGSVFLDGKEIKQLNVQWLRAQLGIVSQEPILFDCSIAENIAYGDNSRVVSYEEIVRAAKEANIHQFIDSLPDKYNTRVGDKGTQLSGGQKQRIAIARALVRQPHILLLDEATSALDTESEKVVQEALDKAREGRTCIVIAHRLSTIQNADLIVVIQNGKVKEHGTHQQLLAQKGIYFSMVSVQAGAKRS

[2] = Calculation of local concentrations of the amphiphiles in membrane and aqueous medium from partition coefficients; conditions: for fraction associated with the lipid bilayer of the native membrane: 0.107 mg of protein per mL; for concentration associated with the membrane: total concentration 60 µM; for fraction associated with the membranes: IAAP displacement conditions, 1 mg of protein per mL; for fraction of amphiphile in the membrane associated with proteins: low amphiphile concentrations, away from saturation; for concentration in the aqueous phase: total amphiphile 50 µM, partition to native membranes
From the text: A major limitation of the models used to analyze the effects on P–gp’s ATPase activity and IAAP displacement is the use of global concentrations. Interaction of the amphiphiles with P–gp is considered to occur from the membrane and, therefore, what is relevant is the amphiphile concentration in the lipid bilayer where P–gp is embedded. The importance of using local concentration in the analysis of the interaction of small molecules with membrane proteins has been pointed out before (e.g., [33, 35, 37, 46, 84, 85]), but, unfortunately, it is still overlooked. The local concentrations may be calculated from the partition coefficient of the amphiphiles between the aqueous media and the model membranes with the relevant lipid composition. […] An intermediate affinity is obtained for NBD–LysoMPE in spite of its longer aliphatic chain. This is due to its bigger and much polar (charged) head group. From the partition coefficients one may calculate the local concentration of amphiphile in the membrane for a given total concentration of amphiphile. At the concentration of native membranes used in the ATPase assays (0.107 mg of protein per mL), 2% of the NBD–C4 is associated with the lipid bilayer of the native membrane (see Supplementary Information, Section S10 for details). As expected, for the more lipophilic amphiphiles, the fraction associated with the lipid bilayer increases, being 53% for NBD–C8 and 13% for NBD–LysoMPE. In the IAAP displacement experiments, the amount of native membranes is almost 10 times higher (1 mg of protein per mL), leading to 18% of NBD–C4 associated with the membranes, and 91% and 58% for the case of NBD–C8 and NBD–LysoMPE, respectively.
S10 – Calculation of the local concentration of the amphiphiles in the membrane and in the […]
The concentration of phospholipids (PL) in a solution containing native membranes is calculated from the concentration of protein and the ratio of PLs to prot eins (0.57 g PL/g P , average PL molar mass of 750 g/mol). The volume of the lipid bilayer (VLb) is then calculated considering a density of 1 g/cm3 for the phospholipids.
Typical values for the conditions of the ATPase activity assays are given be low:
The volume occupied by proteins in the membrane (VP) was calculated considering a density of 1.2 g/cm3 (being 8.9 × 10‐5 × VT, and the total volume of native membranes is 1.5 × 10‐4 × VT.
The IAAP displacement assay was performed with a protein concentration of 1 g/L, leading to proportionally higher volumes of the lipid bilayer and proteins.
Knowing the partition coefficients of the ligand one may calculate the fractions in each medium: […]
The fraction of amphiphile in the membrane (lipid bilayer plus membrane proteins), is given by:
MLbP PLKVKV KVWL→→ →b WP WM+ fffVK VK VVK VK VLLL WL=+= =bPP PM , WP L++ ++→→ →→b WP WLbP PWP Lb WPbP P where WMK → is the partition coeff icient obtained experimentally between the aqueous media P and the native membranes.
The above equations are only valid if the system is away from saturation (at low concentrations of amphiphiles relative to the binding agents). At relatively high amphiphile concentrations, the proteins may become saturated, leading to a decrease in the apparent partition coefficient and to an increase in the relative fraction of amphiphile associated with the lipid bilayer.
From the above equations one may calculate directly the concentration of amphiphile in each […]
To evaluate if the aqueous medium is saturated, this concentration sho uld be co mpared with the ligand critical aggregation concentration. P ossible perturbation of the lipid bilayer is best evaluated from the mo la r ratio of lipids to ligand bound (PL:L)

T1 sequence (P21447 whole entry): as above

Structure (SMILES)	Ki (mP–gp)	number of binding sites n giving agreement between the two estimates of the partition coefficient (mP–gp; re-analysis of IAAP displacement, IAAP displaced for i ≥ n−1)	critical aggregation concentration (CAC) [1]	increase of CAC in the presence of co-solvent [1]	Kd (mouse P–gp (mP–gp))	fraction associated with the lipid bilayer of the native membrane ([2]; ATPase assay conditions)	concentration associated with the membrane ([2]; ATPase assay conditions)	concentration associated with the membrane ([2]; IAAP assay conditions (membrane 10-fold higher))	fraction associated with the membranes [2]	fraction of amphiphile in the membrane associated with proteins [2]	concentration in the aqueous phase ([2]; ATPase assay conditions)	concentration in the aqueous phase ([2]; IAAP assay conditions)
CCCCNc1ccc([N+](=O)[O-])c2nonc12 [NBD–C4]	14 µM	5	250 µM	not significantly affected	84 µM	2%	1.4 µM	11 µM	18%	72%	–	–
CCCCCCCCNc1ccc([N+](=O)[O-])c2nonc12 [NBD–C8]	4 µM	–	1 µM	4 fold	17 µM	53%	–	–	91%	15%	21 µM	4 µM
CCCCCCCCCCCCCC(=O)OCC(O)COP(=O)(O)OCCNc1ccc([N+](=O)[O-])c2nonc12 (centres unmarked) [NBD–LysoMPE]	23 µM	–	4 µM	–	13 µM	13%	–	–	58%	–	12 µM	2 µM

Source: paper PMC9862096, “Interaction of a Homologous Series of Amphiphiles with P-glycoprotein in a Membrane Environment—Contributions of Polar and Non-Polar Interactions” (Pharmaceutics, 2023)
